From patent US11186564B2, “Dual NAV1.2/5HT2a inhibitors for treating CNS disorders” (Sunovion Pharmaceuticals Inc., priority 2016, dated 2021)
pIC50: −log10 of the molar value. Where two headings read alike, the source gives them in different places.

How the values were obtained:
[1] = molecular target: human sodium channel NaV1.2 (Homo sapiens, UniProt Q99250); experiment: NaV1.2 inhibition, automated patch-clamp (Q-Patch HTX), slow inactivated state (state C); type: cell-based; conditions: for pIC50: read-out: NaV1.2 IC50; for inhibition at 10 µM: read-out: NaV1.2 (% inh), 10 μM; for inhibition at 1 µM: 1 μM compound, read-out: NaV1.2 (% inh), 1 μM
Text: In vitro method for NaV1.2 inhibition assays: The methods utilized to assess the inhibitory activity of compounds on NaV1.2 were based on the methods described by Liu et al. [Liu Y, Beck E J, & Flores C M (2011): Validation of a patch clamp screening protocol that simultaneously measures compound activity in multiple states of the voltage-gated sodium channel Nav1.2. Assay Drug Development Technology 9, 628-634]. For these electrophysiology assays, a cell line (Chinese Hamster Ovarian K-1 cells (CHO K-1)) engineered to stably express human sodium channel NaV1.2 was purchased from Millipore Corporation (catalog no. CYL3023). The electrophysiology measurements were performed using automated patch-clamp methods on a Q-Patch HTX instrument by scientists at Evotec AG under contract with Sunovion.
The solutions utilized for the Qpatch experiments were similar buffered solutions to those described by Liu et al. [Liu Y, Beck E J, & Flores C M (2011)]. The extracellular solution contained 140 millimolar sodium chloride, 4 millimolar potassium chloride, 2 millimolar calcium chloride, 1 millimolar magnesium chloride, 10 millimolar 4-(2-hydroxyethyl)-1-piperazineethanesulfonic acid (HEPES), and 10 millimolar glucose (pH adjusted to 7.4 with sodium hydroxide). The intracellular solution contained 100 millimolar cesium fluoride, 45 millimolar cesium chloride, 10 millimolar HEPES, 5 millimolar ethylene glycol tetraacetic acid (EGTA), and 5 millimolar glucose (pH adjusted to 7.2 with cesium hydroxide).
The biophysical experiments of Lui et al. [Liu Y, Beck E J, & Flores C M (2011)] were replicated to assess the fast, slow and total inactivation characteristics of the human Nav1.2 channel
Based upon results from studies of the fast, slow and total inactivation characteristics of the human Nav1.2 channel, a voltage protocol involving a sequence of consecutive pulses of current was used to measure channel activity in several states [Liu Y, Beck E J, & Flores C M (2011)]. The monolayer of CHO K-1 cells stably expressing human sodium channel NaV1.2 (hNaV1.2 CHO cells) was maintained in the Qpatch instrument at a potential of −100 millivolts (mV) except when the voltage protocol was being executed. The first pulse in the protocol involved a 100 millisecond depolarization to 0 mV to enable measurement of channel availability in the closed state (state A). The potential was then maintained at −90 mV for 15 milliseconds, followed by a five millisecond period of depolarization to 0 mV to enable measurement of channel availability after partial recovery from fast inactivation (state B). Next, the potential was maintained at −90 mV for 300 milliseconds, followed by ten seconds at −50 mV, 15 milliseconds at −90 mV, and finally another five millisecond period of depolarization to 0 mV to enable measurement of channel availability after additional recovery from fast inactivation and significant entry into the slow inactivated state (state C). Finally, after an additional 300 millisecond period at −90 mV, another five millisecond period of depolarization to 0 mV was employed to enable measurement of channel availability after partial recovery from the slow inactivated state (state D). Measurements of activity at state C were used to assess the activity of the NaV1.2 channel in the slow inactivated state. Comparison of activity after addition of test compounds or reference compounds with activity after addition of vehicle only provided a measure of percent remaining activity from which percent inhibition was calculated. […] A slight modification of this protocol was utilized to provide measurements as a function of compound concentration, which enabled IC50 values to be determined. IC50 values were calculated by non-linear least squares regression of the data (percent inhibition of ion channel NaV1.2 activity in the slow inactivated state) onto equation (1): % inhibition=100%/(1+(IC50/[compound]) equation (1)
J Pharmacol Exp Ther. 2008 July; 326(1):89-99.].

[2] = molecular target: T1, recombinant human serotonin receptor 5-HT2A (Homo sapiens, UniProt P28223); experiment: 5-HT2A antagonist Ca2+ assay in CHO-K1 cells (method A aequorin luminescence / method B FLIPR fluorescence); type: cell-based; conditions: antagonist mode vs EC80 of reference agonist, method A or B; for pIC50: read-out: 5HT2A IC50; for IC50: 5HT2A IC50, μM
T1 construct: expressed in transfected cells; method B: loaded with Ca2+ dye
Summary of the method: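 Method A: CHO-K1 cells co-expressing human 5-HT2A and mitochondrial apoaequorin were given reference agonist at EC80 15 min after compound, with luminescence read. Method B: dye-loaded 5-HT2A CHO-K1 cells were pretreated with compound, then given serotonin at EC80, with FLIPR fluorescence read. IC50s came from nonlinear fits of percent inhibition.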

[3] = hNaV1.2 CHO cells, slow inactivated state
[4] = 10 μM compound, hNaV1.2 CHO cells, slow inactivated state

Chain of human sodium channel NaV1.2 (Q99250 whole entry): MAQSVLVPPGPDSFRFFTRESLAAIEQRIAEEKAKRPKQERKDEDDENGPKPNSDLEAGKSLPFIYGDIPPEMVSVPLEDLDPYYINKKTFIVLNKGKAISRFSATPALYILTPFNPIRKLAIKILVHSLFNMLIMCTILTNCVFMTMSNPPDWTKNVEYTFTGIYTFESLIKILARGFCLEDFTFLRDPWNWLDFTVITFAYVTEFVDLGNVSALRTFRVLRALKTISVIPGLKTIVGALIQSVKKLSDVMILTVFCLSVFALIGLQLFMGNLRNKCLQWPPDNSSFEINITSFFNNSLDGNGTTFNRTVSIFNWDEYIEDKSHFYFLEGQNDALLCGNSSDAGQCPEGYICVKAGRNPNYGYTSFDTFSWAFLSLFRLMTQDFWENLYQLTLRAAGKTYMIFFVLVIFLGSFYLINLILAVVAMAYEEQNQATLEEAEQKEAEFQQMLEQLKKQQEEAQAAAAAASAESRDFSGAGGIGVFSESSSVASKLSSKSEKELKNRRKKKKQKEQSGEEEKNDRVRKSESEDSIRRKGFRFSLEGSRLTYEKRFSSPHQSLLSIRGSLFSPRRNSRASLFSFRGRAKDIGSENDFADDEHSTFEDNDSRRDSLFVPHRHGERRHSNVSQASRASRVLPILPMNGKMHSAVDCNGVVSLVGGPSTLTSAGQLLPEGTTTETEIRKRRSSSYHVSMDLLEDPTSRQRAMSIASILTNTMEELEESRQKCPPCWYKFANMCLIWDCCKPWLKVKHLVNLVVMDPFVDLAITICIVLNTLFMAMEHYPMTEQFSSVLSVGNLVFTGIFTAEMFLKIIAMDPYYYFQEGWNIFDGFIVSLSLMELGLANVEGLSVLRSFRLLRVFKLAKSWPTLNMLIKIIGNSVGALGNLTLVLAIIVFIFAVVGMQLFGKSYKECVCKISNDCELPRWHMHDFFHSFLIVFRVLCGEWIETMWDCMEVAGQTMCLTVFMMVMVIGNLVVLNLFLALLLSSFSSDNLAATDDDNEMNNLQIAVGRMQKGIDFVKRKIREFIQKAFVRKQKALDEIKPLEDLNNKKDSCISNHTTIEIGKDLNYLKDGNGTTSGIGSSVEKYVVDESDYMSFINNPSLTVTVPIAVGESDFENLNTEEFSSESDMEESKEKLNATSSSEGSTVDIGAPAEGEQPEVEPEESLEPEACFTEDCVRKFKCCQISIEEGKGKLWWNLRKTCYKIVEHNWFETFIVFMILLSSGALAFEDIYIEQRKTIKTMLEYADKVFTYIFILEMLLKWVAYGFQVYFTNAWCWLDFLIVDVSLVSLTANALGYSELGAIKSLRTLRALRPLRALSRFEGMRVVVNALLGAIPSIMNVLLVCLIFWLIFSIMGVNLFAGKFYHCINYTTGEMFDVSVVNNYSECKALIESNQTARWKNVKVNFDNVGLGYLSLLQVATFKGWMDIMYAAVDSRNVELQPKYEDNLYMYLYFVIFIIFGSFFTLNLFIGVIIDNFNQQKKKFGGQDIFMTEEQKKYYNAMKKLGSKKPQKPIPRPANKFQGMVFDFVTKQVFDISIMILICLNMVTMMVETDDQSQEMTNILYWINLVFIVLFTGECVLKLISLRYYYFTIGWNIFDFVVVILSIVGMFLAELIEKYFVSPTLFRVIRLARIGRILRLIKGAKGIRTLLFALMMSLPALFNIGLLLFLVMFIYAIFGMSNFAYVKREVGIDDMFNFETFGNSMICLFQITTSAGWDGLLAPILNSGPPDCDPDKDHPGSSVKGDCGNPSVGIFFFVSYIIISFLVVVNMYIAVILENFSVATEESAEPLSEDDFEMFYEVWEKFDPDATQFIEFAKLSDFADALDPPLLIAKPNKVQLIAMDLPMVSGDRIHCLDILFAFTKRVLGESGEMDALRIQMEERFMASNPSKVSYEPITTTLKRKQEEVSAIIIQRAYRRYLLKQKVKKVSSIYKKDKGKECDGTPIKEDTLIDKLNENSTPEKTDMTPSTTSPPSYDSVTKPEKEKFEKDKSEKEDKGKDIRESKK
T1 sequence (P28223 whole entry): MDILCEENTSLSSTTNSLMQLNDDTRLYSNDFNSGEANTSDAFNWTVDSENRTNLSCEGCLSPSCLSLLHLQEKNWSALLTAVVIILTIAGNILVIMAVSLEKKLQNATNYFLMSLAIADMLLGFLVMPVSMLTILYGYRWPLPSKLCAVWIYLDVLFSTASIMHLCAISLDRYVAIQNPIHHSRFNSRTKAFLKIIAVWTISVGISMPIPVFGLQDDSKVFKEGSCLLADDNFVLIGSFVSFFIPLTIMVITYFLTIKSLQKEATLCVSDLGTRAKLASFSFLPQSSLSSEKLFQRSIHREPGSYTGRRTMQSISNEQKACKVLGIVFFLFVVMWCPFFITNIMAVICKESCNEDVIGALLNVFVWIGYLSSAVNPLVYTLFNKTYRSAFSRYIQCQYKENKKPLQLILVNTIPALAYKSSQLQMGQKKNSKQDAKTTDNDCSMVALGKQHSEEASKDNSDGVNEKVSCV

Question: Which results are given for `c1ccc(OC2COC3(C2)CN(CC2CCc4ccccc42)C3)cc1` (single isomer, unassigned) [Compound 362, 2-((2,3-dihydro-1H-inden-1-yl)methyl)-7-phenoxy-5-oxa-2-azaspiro[3.4]octane]?
Answer: pIC50 [1, 3]: 5.20; pIC50 [2]: 6.30

Question: Which inhibition at 10 µM [1, 4] does the source give for `O=C(CN1CCN(c2cccc(Cl)c2)CC1)c1ccccc1` [Example 66, 2-(4-(3-chlorophenyl)piperazin-1-yl)-1-phenylethan-1-one] here?
Answer: 55%

Question: What about the pIC50 [2] of the same compound?
Answer: 6.05

Question: What does the source list for `O=C1c2cc(Cl)ccc2CN1CCN1CCC(Oc2ccc(F)cc2)CC1` [Example 189, 6-chloro-2-(2-(4-(4-fluorophenoxy)piperidin-1-yl)ethyl)isoindolin-1-one]?
Answer: inhibition at 1 µM [1, 3]: 0%; pIC50 [2]: 6.74

Question: With `OC(COc1ccccc1)CN1CCN(c2cccc(Cl)c2)CC1` (stereo not drawn) [Example 89, 1-(4-(3-chlorophenyl)piperazin-1-yl)-3-phenoxypropan-2-ol] as the compound, how does the pIC50 [1, 3] read?
Answer: 6.36

Question: What about the pIC50 [2] of the same compound?
Answer: 7.15

Question: `COc1ccccc1OC1CCN(CC2c3ccccc3CC2C)CC1` (stereo not drawn) [Example 101, 4-(2-methoxyphenoxy)-1-((2-methyl-2,3-dihydro-1H-inden-1-yl)methyl)piperidine] was tested. Which pIC50 [1, 3] did it give?
Answer: 6.43

Question: What about the pIC50 [2] of the same compound?
Answer: 7.10

Question: `N#Cc1cccc(OC2CCN(CCN3CCc4ccccc4C3=O)CC2)c1` [Example 197, 3-((1-(2-(1-oxo-3,4-dihydroisoquinolin-2(1H)-yl)ethyl)piperidin-4-yl)oxy)benzonitrile] was tested. Which inhibition at 10 µM [1, 4] did it give?
Answer: 47%

Question: What about the pIC50 [2] of the same compound?
Answer: 5.90

Question: `Fc1ccc(OC2CCN(CCC3CCc4cccnc43)CC2)cc1` (stereo not drawn) [Example 175, 7-(2-(4-(4-fluorophenoxy)piperidin-1-yl)ethyl)-6,7-dihydro-5H-cyclopenta[b]pyridine] was tested. Which pIC50 [1, 3] did it give?
Answer: 6.36

Question: And the pIC50 [2]?
Answer: 8.00

Question: `O[C@H](CO[C@H]1CCCc2ccccc21)CN1CCN(Cc2ccccc2)CC1` [Example 87, (S)-1-(4-benzylpiperazin-1-yl)-3-(((S)-1,2,3,4-tetrahydronaphthalen-1-yl)oxy)propan-2-ol] was tested. Which inhibition at 1 µM [1, 3] did it give?
Answer: 15%

Question: What about the pIC50 [2] of the same compound?
Answer: 5.44

Question: For `O=C1c2ccccc2CCN1CCN1CCN(c2ccccc2)CC1` [Example 63, 2-(2-(4-phenylpiperazin-1-yl)ethyl)-3,4-dihydroisoquinolin-1(2H)-one], which inhibition at 1 µM [1, 3] is on record?
Answer: 16%

Question: What about the pIC50 [2] of the same compound?
Answer: 6.35

Question: Which results are given for `O[C@@H](CO[C@@H]1CCc2ccccc21)CN1CC[C@@H](Oc2ccc(F)cc2)C1` [Example 47, (R)-1-(((R)-2,3-dihydro-1H-inden-1-yl)oxy)-3-((R)-3-(4-fluorophenoxy)pyrrolidin-1-yl)propan-2-ol]?
Answer: pIC50 [1, 3]: 6.44; pIC50 [2]: 7.00

Question: How did the inhibition at 10 µM [1, 4] turn out when `O=C1c2ccccc2CCN1CCN1CCC(Oc2cccnc2)CC1` [Example 192, 2-(2-(4-(pyridin-3-yloxy)piperidin-1-yl)ethyl)-3,4-dihydroisoquinolin-1(2H)-one] was run?
Answer: 15%

Question: What about the pIC50 [2] of the same compound?
Answer: 5.55

Question: Which results are given for `c1ccc2c(c1)CCC1(CCN(CC3CCc4ccccc43)C1)O2` (stereo not drawn) [Example 387, 1′-((2,3-dihydro-1H-inden-1-yl)methyl)spiro[chromane-2,3′-pyrrolidine]]?
Answer: inhibition at 1 µM [1, 3]: 29%; pIC50 [2]: 7.52

Question: Which results are given for `OC(COC1CCCCC1)CN1[C@@H]2CC[C@H]1CN(c1ccccc1)C2` (stereo partly drawn) [Example 286, 1-(cyclohexyloxy)-3-((1R,5S)-3-phenyl-3,8-diazabicyclo[3.2.1]octan-8-yl)propan-2-ol]?
Answer: pIC50 [1, 3]: 5.90; IC50 [2]: 0.01 µM

Question: With `c1ccc2c(c1)CCC2CN1CCC2(CCc3ccncc3O2)CC1` (stereo not drawn) [Example 405, 1-((2,3-dihydro-1H-inden-1-yl)methyl)-3′,4′-dihydrospiro[piperidine-4,2′-pyrano[2,3-c]pyridine]] as the compound, how does the inhibition at 1 µM [1, 3] read?
Answer: 18%

Question: And the pIC50 [2]?
Answer: 6.74

Question: Which inhibition at 1 µM [1, 3] does the source give for `c1ccc(N2C[C@@H]3CC[C@H]2CN3CCC2COCc3ccccc32)cc1` (stereo partly drawn) [Example 315, (1S,4S)-2-(2-(isochroman-4-yl)ethyl)-5-phenyl-2,5-diazabicyclo[2.2.2]octane] here?
Answer: 5%

Question: And the pIC50 [2]?
Answer: 5.28

Question: `Fc1ccc(OC2CCN(CCC3CCc4cnccc43)CC2)cc1` (stereo not drawn) [Example 173, 5-(2-(4-(4-fluorophenoxy)piperidin-1-yl)ethyl)-6,7-dihydro-5H-cyclopenta[c]pyridine] was tested. Which pIC50 [1, 3] did it give?
Answer: 5.50

Question: And the pIC50 [2]?
Answer: 8.00

Question: `OC(COc1ccccc1)CN1CCC2(CCc3ccccc3O2)CC1` (stereo not drawn) [Example 439, 1-phenoxy-3-(spiro[chromane-2,4′-piperidin]-1′-yl)propan-2-ol] was tested. Which pIC50 [1, 3] did it give?
Answer: 6.30

Question: What about the pIC50 [2] of the same compound?
Answer: 8.00

Question: Which inhibition at 10 µM ([1]; CHO) does the source give for `OC(COC1CCCCC1)CN1CCC2(CC1)OCc1ccccc12` (stereo not drawn) [Example 393, 1′-(cyclohexyloxy)-3-(3H-spiro[isobenzofuran-1,4′-piperidin]-1′-yl)propan-2-ol] here?
Answer: 93%

Question: What about the IC50 [2] of the same compound?
Answer: 1.8 µM

Question: How did the pIC50 [1, 3] turn out when `Fc1ccc(OC2CCN(CCC3CCOc4ccccc43)CC2)cc1` (stereo not drawn) [Example 183, 1-(2-(chroman-4-yl)ethyl)-4-(4-fluorophenoxy)piperidine] was run?
Answer: 5.80

Question: What about the pIC50 [2] of the same compound?
Answer: 7.40

Question: Which results are given for `COc1cccc(OCCN2CCN(c3nsc4ccccc34)CC2)c1` [Example 68, 3-(4-(2-(3-methoxyphenoxy)ethyl)piperazin-1-yl)benzo[d]isothiazole]?
Answer: pIC50 [1, 3]: 6.14; pIC50 [2]: 8.40

Question: `O=C(CN1CCC(Oc2ccc(F)cc2)CC1)C1CCc2ccccc21` (stereo not drawn) [Example 215, 1-(2,3-dihydro-1H-inden-1-yl)-2-(4-(4-fluorophenoxy)piperidin-1-yl)ethan-1-one] was tested. Which inhibition at 1 µM [1, 3] did it give?
Answer: 25%

Question: And the pIC50 [2]?
Answer: 6.72

Question: What does the source list for `Fc1ccc(OC2CCCCN(CC3CCc4ccccc43)C2)cc1` (stereo not drawn) [Example 275, 1-((2,3-dihydro-1H-inden-1-yl)methyl)-3-(4-fluorophenoxy)azepane]?
Answer: inhibition at 1 µM [1, 3]: 2%; pIC50 [2]: 6.40

Question: Which results are given for `COc1ccc2c(c1)C(CN1CC[C@@H](Oc3ccccc3OC)C[C@@H]1C)CC2` (stereo partly drawn) [Example 102, (2S,4R)-1-((6-methoxy-2,3-dihydro-1H-inden-1-yl)methyl)-4-(2-methoxyphenoxy)-2-methylpiperidine]?
Answer: inhibition at 1 µM [1, 3]: 82%; pIC50 [2]: 6.82

Question: For `CN(C)c1ccc(OC2CCN(CCN3CCc4ccccc4C3=O)CC2)cc1` [Example 201, 2-(2-(4-(4-(dimethylamino)phenoxy)piperidin-1-yl)ethyl)-3,4-dihydroisoquinolin-1(2H)-one], which inhibition at 10 µM [1, 4] is on record?
Answer: 39%

Question: What about the pIC50 [2] of the same compound?
Answer: 5.66

Question: Which results are given for `NCCOc1ccc2c(c1)C(CN1CCC(Oc3ccc(F)cc3)CC1)CC2` (stereo not drawn) [Example 114, 2-((3-((4-(4-fluorophenoxy)piperidin-1-yl)methyl)-2,3-dihydro-1H-inden-5-yl)oxy)ethan-1-amine]?
Answer: inhibition at 10 µM [1, 4]: 52%; pIC50 [2]: 7.15

Question: For `O[C@H](COC1CCCCC1)CN1C[C@@H]2C[C@H]1CN2Cc1ccccc1` [Example 309, (S)-1-((1S,4S)-5-benzyl-2,5-diazabicyclo[2.2.1]heptan-2-yl)-3-(cyclohexyloxy)propan-2-ol], which inhibition at 10 µM [1, 4] is on record?
Answer: 52%

Question: And the pIC50 [2]?
Answer: 5.32

Question: Which results are given for `c1ccc2c(c1)CC(CN1CCC3(CCc4ccccc4O3)CC1)C2` [Example 410, 1′-((2,3-dihydro-1H-inden-2-yl)methyl)spiro[chromane-2,4′-piperidine]]?
Answer: pIC50 [1, 3]: 6.32; pIC50 [2]: 7.00
